The test system of test [1] is loblolly cell lines. Kind of test: asa2 (pWVC33) selection on Geneticin, 5MT or AMT, PCR check (Example 32). The settings on record: Geneticin 15 mg/L with casein hydrolysate, 5MT or AMT 30 mg/L with AA4. The class given is cell-based, Pinus taeda. Here is the method: Two loblolly cell lines were prepared for transformation using the method of Example 28, and co-cultivated with Agrobacterium tumefaciens transformed with pWVC33 (FIG. 7) as described in Example 28. Following eradication of Agrobacterium, each cell line was equally divided onto 6 plates each of 5 different selection media containing either casein hydrolysate and Geneticin at 15 mg/L, or amino acid mixture AA4 and either 5-methyltryptophan (5MT) at 30 or 50 mg/L or […] (AMT) at 30 or 50 mg/L. The results are show in FIG. 12. Putatively transformed sublines grow on Geneticin-containing plates and on both selection treatments where 30 mg/L of the methylated tryptophan selective analog was incorporated.

The subject of test [2] is 10 different loblolly and hybrid pine lines. Kind of test: Growth on casein hydrolysate or mixture AA4 with 5-methyltryptophan (FIG. 11). The class given is cell-based, Pinus taeda and hybrid pine. The settings on record: 0, 3, 10, or 30 mg/L 5-methyltryptophan. The text has this:
In another experiment, 10 different loblolly and hybrid pine lines were used, from eight genetically diverse families. These lines were initiated and cryopreserved as described in Example 26, and were placed into uniform suspension cultures and plated onto the respective media treatments as described in Example 26. Media for the experiment comprised DCR2 maintenance media containing either 0.5 g/L casein hydrolysate, 0.5 g/L of the derived mixture AA4 having the proportions shown in Table 24, or lacking both casein and the amino acid mixtures, and each of these treatments were provided with each of 0, 3, 10, or 30 mg/L treatments of 5-methyltryptophan (5MT). The vertical axis is the total weight increase in grams after the respective period.

For a further test, the system named is loblolly pine cell lines. Kind of test: als/Ally selection on medium without casein hydrolysate, PCR verification (Example 28). The class given is cell-based, Pinus taeda. Particulars: selection on 50 nM or 100 nm Ally, no casein hydrolysate; seven sublines tested by PCR. From the text:
In this example, five loblolly pine cell lines from four elite families were transformed with plasmids containing the als selectable marker, and selection was done on a sulfonylurea-containing selection medium modified to exclude casein hydrolysate. The five pine cell lines were initiated as described in Example 26, except that one of the five lines was an elite loblolly cross grown in an International Paper seed orchard in Georgia. The lines were cryopreserved, retrieved, and cultured as uniform suspensions as described in Example 26.
To prepare for gene transfer, polyester membrane supports were sterilized by autoclaving and placed in separate sterile Buchner funnels, and for each of six replicate plates per cell line, one to three milliliters of pine embryogenic suspension was pipetted onto each support such that the embryogenic tissue was evenly distributed. The liquid medium was suctioned from the tissues and each support bearing the embryogenic tissue was placed on gelled DCR3 preparation medium for Agrobacterium inoculation according to the methods described in U.S. Patent Publication No. 20020100083. […]

For test [3], the system named is loblolly cell lines. Kind of test: pWVC23 transformants selected on Ally, checked on Geneticin and by PCR (Example 30). The class given is cell-based, Pinus taeda. Particulars: Ally at either 50 or 100 nM. The method, then: Two loblolly cell lines were prepared for transformation using the same methods of Example 28, and co-cultivated with Agrobacterium tumefaciens transformed with pWVC23(FIG. 3), also as described in Example 28. Following eradication of Agrobacterium, each cell line was equally divided onto selection medium containing either Geneticin at 15 mg/L or Ally at either 50 or 100 nM. After putatively transformed sublines were grown to a sufficient size, nine sublines grown on Ally-containing media were transferred to Geneticin-containing media to check transformation status rapidly before PCR. 100% of these lines are able to grow on Geneticin-containing media. Five of these lines were then checked with PCR using the six primer pairs described in Example 28. 100% of these lines were confirmed postive transformants by PCR.

For test [4], the system named is 13 loblolly and hybrid pine lines. Kind of test: Growth on synthetic casein hydrolysate mixtures with Ally (FIG. 10). The class given is cell-based, Pinus taeda and hybrid pine. Particulars: media with amino acid mixture in which branched chain amino acids are absent; Ally 0, 10, 30, or 50 mM. The method, then:
The synthetic mixtures were tested in 13 loblolly and hybrid pine lines from 7 genetically diverse families. These lines were initiated and cryopreserved as described in Example 26, and were placed into uniform suspension cultures and plated onto the respective media treatments as described in Example 27. Media for the experiment comprised DCR2 maintenance media containing either 0.5 g/L casein hydrolysate, 0.5 g/L of one of the derived mixtures having the proportions shown in Table 24, or lacking both casein and the amino acid mixtures, and each of these treatments were provided with each of 0, 10, 30, or 50 mM treatments of the herbicide Ally® (commercially available from Dupont™).

As to `Cc1ccc2[nH]cc(C[C@H](N)C(=O)O)c2c1` [5MT30, 5-methyltryptophan], in the test on loblolly cell lines [1], the “False positive Frequency” value is listed as 0.13. Moreover, the “PCR confirmed positive (number of lines)” value in the test with loblolly cell lines [1] (of 12, 8, 22 lines PCR tested) was 7. Also, the “reduction in growth, FIG. 11” value in test [2] was “only in the absence of tryptophan is it possible to obtain satisfactory reduction in growth”.
Turning to `COC(=O)c1ccccc1S(=O)(=O)NC(=O)Nc1nc(C)nc(OC)n1` [Ally], the false positive rate in the test on loblolly pine cell lines came out at 14%. Besides, the “lines confirmed positive transformants by PCR” value in the test on loblolly cell lines [3] (five lines checked) stood at 100%. In addition, in the test on loblolly cell lines [3] (nine sublines), the “Ally-selected sublines able to grow on Geneticin-containing media” value worked out at 100%. For the same compound, the “growth of cells, FIG. 10” value in test [4] was “growth is retarded or stopped to a significant degree”.

(Values after patent US7960614B2, “Plant transformation and selection” (Arborgen, LLC, priority 2003, dated 2011).)
